According to US11793775B2, “Combined therapy for treating Alzheimer's disease” (MERRY LIFE BIOMEDICAL COMPANY, LTD., priority 2021, dated 2023):

Tests used:
microglia [1] = experiment: Morphological analyses of microglia (neurite outgrowth analyses); type: in vivo, APP/PS1 mice; settings: total length of cell-associated skeletonized outgrowth, FIG. 5G
microglia [2] = experiment: Microglial Aβ phagocytosis by co-localization of Iba1 and Aβ plaques; type: in vivo; settings: brain of APP/PS1 mice, FIG. 5A
Description: (§1) For study of combination treatment, APP/PS1 mice were randomly assigned into four groups and were subjected to the treatments at 3 months of age (the early/prodromal stage of AD) for 4 months. Wt littermates (n=10) were also included for behavioral tests as a WT control group at 7 months. […] Body weight was recorded weekly. After 4 months of treatments, mice at age of 7 months were subjected to the following examinations.
Brain sections were fixed in 4% paraformaldehyde followed by cryoprotection with 30% sucrose in 1×PBS. Floating sections at 30 μm thickness were stored in 1×PBS with 0.05% sodium azide at 4° C. until use. Amylo-Glo RTD™ (TR-400-AG, Biosensis, Thebarton, Australia) was used for detection of amyloid-β (Aβ) plaques in the brain sections per manufacturer's instruction. The sections were mounted on the slide covered with mounting medium (Vectashield H-1000, Vector Laborotories, Burlingame, Calif., USA). Images were acquired using Leica confocal microscopy imaging system. […] Quantification for sizes of AP deposits larger or smaller than 500 μm^2 were presented. […]
Since microglia are primary immune cells in the brain responsible for Aβ clearance, treatment effects on microglial Aβ phagocytosis was evaluated by co-localization of microglia and Aβ plaques using confocal microscopy.

APP/PS1 mice [3] = experiment: Nesting test; type: in vivo
Description: as §1
Before the test for nesting, mice were individually housed for 5 hr. A nestlet pressed-cotton square (Ancare) was then placed into each cage 1 hour before the start of the dark cycle. Pictures of a nestlet were taken at indicated time points, and the entire test underwent for 52 hr. Nest construction was scored by two persons unaware of treatments using a 5-point scaling system as described previously (Yeh et al. 2015). Briefly, a score of 1 indicates a >90% intact nestlet, whereas a score of 5 indicates a <10% intact nestlet and the construction of a nest with an obvious crater.

APP/PS1 mice [4] = experiment: Morris water maze; type: in vivo; settings: training course, compared with wt
Description: as §1
To evaluate spatial learning and memory deficits in APP/PS1 mice, a circular pool of 120 cm in diameter and 40 cm in height was used. The pool was filled with milk at 22-24 ° C. to approximately 20 cm in deep. A hidden platform was submerged 1 cm below the surface of milk. All experimental mice were transferred to the behavior testing room 30 min prior to the water maze to habituate to the test environment. During the training course, mice received 3 trials per day with a 60-minute inter-trial interval for 6 days. Probe test without the hidden platform was performed at day 7 and mice were allowed to investigate for 60 seconds. An overhead camera and a computerized video imaging analysis system were used to analyze the swimming paths and the escape latency.

Aβ plaques = experiment: Aβ plaque deposition by Amylo-glo staining of brain sections; type: in vivo; settings: cortex and hippocampus, APP/PS1 mice at 7 months, 4 months treatment, vs APP/PS1 controls
Description: as §1
Brain sections were fixed in 4% paraformaldehyde followed by cryoprotection with 30% sucrose in 1×PBS. Floating sections at 30 μm thickness were stored in 1×PBS with 0.05% sodium azide at 4° C. until use. Amylo-Glo RTD™ (TR-400-AG, Biosensis, Thebarton, Australia) was used for detection of amyloid-β (Aβ) plaques in the brain sections per manufacturer's instruction. The sections were mounted on the slide covered with mounting medium (Vectashield H-1000, Vector Laborotories, Burlingame, Calif., USA). Images were acquired using Leica confocal microscopy imaging system. Numbers of Aβ deposits and fluorescent area positive for AP deposits were normalized with total area of the section using MetaMorph imaging software. Quantification for sizes of AP deposits larger or smaller than 500 μm^2 were presented. […]

[5] = Stability of TML-6 in TML-6 diet by LC/MS/MS; type: physicochemical; settings: rodent chow supplemented with TML-6, LC/MS/MS
Description: TML-6, a small molecule curcumin analog, was used in this study. A regular rodent chow (Laboratory Rodent Diet 5001) supplemented with TML-6 at 100 mg/kg rodent chow was provided by Merry Life Biomedical company, Ltd. Content, purity, and stability of TML-6 in TML-6 diet at different storage conditions were analyzed using LC/MS/MS via service provided by the Development Center for Biotechnology, Taiwan. TML-6 diet was stored at 4° C. and was added to mouse cages twice a week for ad libitum feeding regimens. Daily uptake of TML-6 in APP/PS1 mice was estimated based on average consumption of rodent chow supplemented with TML-6 at 100 mg/kg chow for 24 hr or 8 days. Briefly, three APP/PS1 mice were housed individually in metabolic cages with an apparatus for measuring food-intake. Estimated TML-6 uptake per kg body weight per day was calculated by multiplying the daily consumption of TML-6 supplemented chow by the amount of TML-6 in the chow divided by body weight.

With `CCN(CC)C(=O)CC(C)(C(=O)/C=C/c1ccc(OC)c(OC)c1)C(=O)/C=C/c1ccc(OC)c(OC)c1` [TML-6] the “total outgrowth of microglia” value (microglia [1]) was “increased”, the “microglial Aβ phagocytosis (co-localization of Iba1 and Aβ plaques)” value (microglia [2]) was “not affected” and the nesting scores (APP/PS1 mice [3]; two-way ANOVA, vs APP/PS1 controls, FIG. 4A) was “significant improvements”. The “slopes of nesting scores, p (linear regression)” value (APP/PS1 mice [3]; vs APP/PS1 controls, FIG. 4B) was 0.07173, the “slopes of nesting scores, p (linear regression)” value (APP/PS1 mice [3]; vs wt) was 0.1648 and the “latency of finding the hidden platform” value (APP/PS1 mice [4]) was “comparable to that of wt”. For the same compound, the “Aβ depositions (Amylo-glo staining)” value (Aβ plaques) was “lower levels of Aβ depositions” and the “amount of TML-6 in rodent chow at various storage conditions” value [5] was “stable”.
